Laboratory results: US20250114345A1, “COMPOUNDS AND COMPOSITIONS AS CBP/P300 DEGRADERS AND USES THEREOF” (Oncopia Therapeutics, Inc. d/b/a/ SK Life Science Labs, priority 2023, published 2025)

Biological target: T1, p300 (Homo sapiens, UniProt Q09472)
T1 construct: host or cells: A549 P300 HiBit cells
Experiment: P300 degradation, HiBit technology in A549 P300 HiBit cells (2 h)
Assay type: cell-based
Conditions: 2 hrs post treatment; for Dmax: A549, A549 P300 HiBit cells; for DC50: A549 P300 HiBit cells
Procedure, shortened: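 A549 cells carrying HiBit-tagged p300 or CBP, seeded overnight at 37 °C/5% CO2, then treated with serial compound dilutions from 10 mM DMSO stocks. Incubation was 2 h for p300 and 24 h for CBP, followed by HiBit lytic detection reagent for 10 min at room temperature. Luminescence read gave degradation potency and Dmax.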

T1 sequence (Q09472 whole entry): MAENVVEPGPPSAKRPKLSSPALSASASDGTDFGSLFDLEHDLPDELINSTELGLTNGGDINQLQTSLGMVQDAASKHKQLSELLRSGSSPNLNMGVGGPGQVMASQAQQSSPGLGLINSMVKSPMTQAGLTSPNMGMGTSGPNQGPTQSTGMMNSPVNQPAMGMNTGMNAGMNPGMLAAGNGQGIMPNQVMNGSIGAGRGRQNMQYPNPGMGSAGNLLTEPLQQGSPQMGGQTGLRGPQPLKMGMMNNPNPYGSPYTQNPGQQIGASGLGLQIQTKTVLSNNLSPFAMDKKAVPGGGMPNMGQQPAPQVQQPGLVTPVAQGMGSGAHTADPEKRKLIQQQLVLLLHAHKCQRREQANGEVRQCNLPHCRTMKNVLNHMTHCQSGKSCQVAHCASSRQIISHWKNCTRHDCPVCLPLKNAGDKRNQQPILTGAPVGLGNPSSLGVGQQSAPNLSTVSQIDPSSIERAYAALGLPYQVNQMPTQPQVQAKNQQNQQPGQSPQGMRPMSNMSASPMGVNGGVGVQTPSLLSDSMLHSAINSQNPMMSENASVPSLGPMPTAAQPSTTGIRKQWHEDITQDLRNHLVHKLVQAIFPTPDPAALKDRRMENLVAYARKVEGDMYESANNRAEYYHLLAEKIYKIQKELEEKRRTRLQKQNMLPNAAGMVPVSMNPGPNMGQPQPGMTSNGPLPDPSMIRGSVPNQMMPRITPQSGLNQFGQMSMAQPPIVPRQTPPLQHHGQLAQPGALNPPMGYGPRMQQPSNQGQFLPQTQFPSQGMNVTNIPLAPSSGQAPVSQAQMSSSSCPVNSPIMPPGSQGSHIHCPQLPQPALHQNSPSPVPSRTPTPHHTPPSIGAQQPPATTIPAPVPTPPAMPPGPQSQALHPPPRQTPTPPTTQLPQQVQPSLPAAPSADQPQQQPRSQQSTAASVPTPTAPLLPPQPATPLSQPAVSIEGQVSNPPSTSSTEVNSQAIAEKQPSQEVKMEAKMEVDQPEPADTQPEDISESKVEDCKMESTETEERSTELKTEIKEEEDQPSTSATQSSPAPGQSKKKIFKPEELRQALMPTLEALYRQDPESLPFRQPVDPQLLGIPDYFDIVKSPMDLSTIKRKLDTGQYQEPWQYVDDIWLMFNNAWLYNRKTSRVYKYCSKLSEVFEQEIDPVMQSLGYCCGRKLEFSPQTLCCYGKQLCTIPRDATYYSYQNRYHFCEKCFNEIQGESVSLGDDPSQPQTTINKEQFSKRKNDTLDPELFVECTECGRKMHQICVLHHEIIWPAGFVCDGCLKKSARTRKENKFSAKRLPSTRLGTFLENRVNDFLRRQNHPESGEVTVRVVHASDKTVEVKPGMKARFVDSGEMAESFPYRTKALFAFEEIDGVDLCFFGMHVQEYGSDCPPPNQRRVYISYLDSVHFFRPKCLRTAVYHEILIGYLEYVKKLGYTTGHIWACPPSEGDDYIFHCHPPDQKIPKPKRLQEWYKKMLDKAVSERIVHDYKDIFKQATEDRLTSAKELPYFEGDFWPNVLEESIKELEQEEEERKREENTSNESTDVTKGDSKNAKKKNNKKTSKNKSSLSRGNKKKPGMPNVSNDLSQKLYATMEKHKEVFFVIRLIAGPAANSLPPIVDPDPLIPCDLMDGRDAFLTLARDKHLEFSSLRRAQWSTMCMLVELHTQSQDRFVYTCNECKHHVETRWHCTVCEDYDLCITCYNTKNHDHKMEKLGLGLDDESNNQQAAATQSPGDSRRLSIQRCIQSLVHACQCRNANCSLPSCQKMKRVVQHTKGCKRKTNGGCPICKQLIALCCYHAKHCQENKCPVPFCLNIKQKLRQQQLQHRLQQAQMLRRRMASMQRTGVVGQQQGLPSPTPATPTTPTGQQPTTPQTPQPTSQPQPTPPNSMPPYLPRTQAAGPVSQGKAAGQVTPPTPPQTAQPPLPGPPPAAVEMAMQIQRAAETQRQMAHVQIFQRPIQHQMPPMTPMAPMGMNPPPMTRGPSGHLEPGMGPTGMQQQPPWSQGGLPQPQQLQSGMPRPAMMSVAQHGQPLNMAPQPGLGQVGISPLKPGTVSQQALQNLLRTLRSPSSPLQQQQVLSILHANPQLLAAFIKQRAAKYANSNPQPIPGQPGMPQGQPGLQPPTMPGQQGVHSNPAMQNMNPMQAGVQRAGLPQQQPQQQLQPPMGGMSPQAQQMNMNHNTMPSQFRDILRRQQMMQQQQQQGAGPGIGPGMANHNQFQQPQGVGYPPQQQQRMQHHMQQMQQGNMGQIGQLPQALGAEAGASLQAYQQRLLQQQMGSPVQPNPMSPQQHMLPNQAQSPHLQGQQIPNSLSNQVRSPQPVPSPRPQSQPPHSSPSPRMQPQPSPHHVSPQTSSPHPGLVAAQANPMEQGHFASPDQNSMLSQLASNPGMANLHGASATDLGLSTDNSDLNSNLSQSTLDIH

| SMILES | Dmax [%] | DC50 [nM] |
| --- | --- | --- |
| Cn1c(=O)n(C)c2c(N3CC[Si](C)(C)CC3)nc(-c3cccc4cc(-c5ccc(C(=O)NCC#Cc6ccc7occ(C8CCC(=O)NC8=O)c7c6)nc5)ncc34)cc21 (centres unmarked) [Example A118, 5-(8-(4-(4,4-dimethyl-1,4-azasilinan-1-yl)-1,3-dimethyl-2-oxo-2,3-dihydro-1H-imidazo[4,5-c]pyridin-6-yl)isoquinolin-3-yl)-N-(3-(3-(2,6-dioxopiperidin-3-yl)benzofuran-5-yl)prop-2-yn-1-yl)picolinamide] | 60 to 79 | 10 to 99 |
| Cn1c(=O)oc2cc(-c3cccc4cc(-c5ccc(C(=O)NCC#Cc6ccc7occ(C8CCC(=O)NC8=O)c7c6)nc5)ncc34)ccc21 (centres unmarked) [Example A120, N-(3-(3-(2,6-dioxo-piperidin-3-yl)benzofuran-5-yl)prop-2-yn-1-yl)-5-(8-(3-methyl-2-oxo-2,3-dihydrobenzo[d]oxazol-6-yl)isoquinolin-3-yl)picolinamide] | < 20 | > 1000 |
| Cc1cc(-c2ccc(Nc3cc(C(C)C)c4c(c3)n(C)c(=O)n4C)cn2)cnc1C(=O)NCC#Cc1ccc2occ(C3CCC(=O)NC3=O)c2c1 (centres unmarked) [Example A125, N-(3-(3-(2,6-dioxo-piperidin-3-yl)benzofuran-5-yl)prop-2-yn-1-yl)-5-((7-isopropyl-1,3-dimethyl-2-oxo-2,3-dihydro-1H-benzo [d]imidazol-5-yl)amino)-5′-methyl-[2,3′-bipyridine]-6′-carboxamide] | 40 to 59 | 10 to 99 |
| CN1C(=O)C(C)(C)c2cc(-c3cccc4cc(-c5ccc(C(=O)NCC#Cc6ccc7occ(C8CCC(=O)NC8=O)c7c6)nc5)ncc34)ccc21 (centres unmarked) [Example A130, N-(3-(3-(2,6-dioxo-piperidin-3-yl)benzo-furan-5-yl)prop-2-yn-1-yl)-5-(8-(1,3,3-trimethyl-2-oxoindolin-5-yl)isoquinolin-3-yl)picolinamide] | 20 to 39 | 10 to 99 |
| Cc1cc(-c2ccc(N(C)c3cc(C(C)C)c4c(c3)n(C)c(=O)n4C)cn2)cnc1C(=O)NCC#Cc1ccc2occ(C3CCC(=O)NC3=O)c2c1 (centres unmarked) [Example A141, N-(3-(3-(2,6-dioxo-piperidin-3-yl)benzofuran-5-yl)prop-2-yn-1-yl)-5-((7-isopropyl-1,3-dimethyl-2-oxo-2,3-dihydro-1H-benzo [d]imidazol-5-yl)(methyl)amino)-5′-methyl-[2,3′-bipyridine]-6′-carboxamide] | > 80 | 1 to 9.9 |
| CC(C)c1cc(N2CCC(F)(F)c3cc(-c4ccc(C(=O)NCC#Cc5ccc6occ(C7CCC(=O)NC7=O)c6c5)nc4)ccc32)cc2c1n(C)c(=O)n2C (centres unmarked) [Example A142, 5-(4,4-difluoro-1-(7-isopropyl-1,3-dimethyl-2-oxo-2,3-dihydro-1H-benzo[d]imidazol-5-yl)-1,2,3,4-tetrahydroquinolin-6-yl)-N-(3-(3-(2,6-dioxopiperidin-3-yl)benzofuran-5-yl)prop-2-yn-1-yl)picolinamide] | > 80 | 10 to 99 |
| CCn1c(=O)n(C)c2ccc(N3CCOc4nc(-c5ccc(C(=O)NCC#Cc6ccc7occ(C8CCC(=O)NC8=O)c7c6)nc5)ncc43)cc21 (centres unmarked) [Example A143, N-(3-(3-(2,6-dioxo-piperidin-3-yl)benzofuran-5-yl)prop-2-yn-1-yl)-5-(5-(3-ethyl-1-methyl-2-oxo-2,3-dihydro-1H-benzo[d]imidazol-5-yl)-6,7-dihydro-5H-pyrimido[4,5-b] [1,4]oxazin-2-yl)picolinamide] | 20 to 39 | 1 to 9.9 |
| Cn1c(=O)oc2cc(N3CCOc4nc(-c5ccc(C(=O)NCC#Cc6ccc7occ(C8CCC(=O)NC8=O)c7c6)nc5)ncc43)ccc21 (centres unmarked) [Example A144, N-(3-(3-(2,6-dioxo-piperidin-3-yl)benzofuran-5-yl)prop-2-yn-1-yl)-5-(5-(3-methyl-2-oxo-2,3-dihydrobenzo[d]oxazol-6-yl)-6,7-dihydro-5H-pyrimido [4,5-b][1,4]oxazin-2-yl)picolinamide] | < 20 | > 1000 |
| Cc1cc(N2CCCc3nc(-c4ccc(C(=O)NCC#Cc5ccc6occ(C7CCC(=O)NC7=O)c6c5)nc4)ncc32)cc2c1n(C)c(=O)n2C (centres unmarked) [Example A146, N-(3-(3-(2,6-dioxo-piperidin-3-yl)benzofuran-5-yl)prop-2-yn-1-yl)-5-(5-(1,3,7-trimethyl-2-oxo-2,3-dihydro-1H-benzo[d]imidazol-5-yl)-5,6,7,8-tetrahydropyrido [3,2-d]pyrimidin-2-yl)picolinamide] | > 80 | 1 to 9.9 |

Continued, values first:

| Dmax [%] | DC50 [nM] | SMILES |
| --- | --- | --- |
| > 80 | 1 to 9.9 | Cc1cc(-c2ncc(N(C)c3cc(C(C)C)c4c(c3)n(C)c(=O)n4C)cc2Cl)cnc1C(=O)NCC#Cc1ccc2occ(C3CCC(=O)NC3=O)c2c1 (centres unmarked) [Example A116, 3-chloro-N-(3-(3-(2,6-dioxopiperidin-3-yl)benzofuran-5-yl)prop-2-yn-1-yl)-5-((7-isopropyl-1,3-dimethyl-2-oxo-2,3-dihydro-1H-benzo [d]imidazol-5-yl)(methyl)amino)-5′-methyl-[2,3′-bipyridine]-6′-carboxamide] |
| > 80 | 1 to 9.9 | CC(C)c1cc(N2CCCc3cc(-c4ccc(C(=O)NCC#Cc5ccc6occ(C7CCC(=O)NC7=O)c6c5)nc4)c(F)cc32)cc2c1n(C)c(=O)n2C (centres unmarked) [Example A117, N-(3-(3-(2,6-dioxo-piperidin-3-yl)benzofuran-5-yl)prop-2-yn-1-yl)-5-(7-fluoro-1-(7-isopropyl-1,3-dimethyl-2-oxo-2,3-dihydro-1H-benzo [d]imidazol-5-yl)-1,2,3,4-tetrahydro-quinolin-6-yl)picolinamide] |
| 60 to 79 | 1 to 9.9 | Cn1c(=O)n(C)c2c(C3CCS(=O)(=O)CC3)nc(-c3cccc4cc(-c5ccc(C(=O)NCC#Cc6ccc7occ(C8CCC(=O)NC8=O)c7c6)nc5)ncc34)cc21 (centres unmarked) [Example A123, 5-(8-(4-(1,1-dioxido-tetrahydro-2H-thiopyran-4-yl)-1,3-dimethyl-2-oxo-2,3-dihydro-1H-imidazo [4,5-c]pyridin-6-yl)isoquinolin-3-yl)-N-(3-(3-(2,6-dioxopiperidin-3-yl)benzofuran-5-yl)prop-2-yn-1-yl)picolinamide] |
| 20 to 39 | 1 to 9.9 | Cc1cc(-c2ncc3c(n2)OCCN3c2cnc3c(c2)n(C)c(=O)n3C)cnc1C(=O)NCC#Cc1ccc2occ(C3CCC(=O)NC3=O)c2c1 (centres unmarked) [Example A126, 5-(5-(1,3-dimethyl-2-oxo-2,3-dihydro-1H-imidazo[4,5-b]pyridin-6-yl)-6,7-dihydro-5H-pyrimido[4,5-b] [1,4]oxazin-2-yl)-N-(3-(3-(2,6-dioxo-piperidin-3-yl)benzofuran-5-yl)prop-2-yn-1-yl)-3-methylpicolinamide] |
| > 80 | 1 to 9.9 | Cc1cc(-c2cnc(N(C)c3cc(C4CCOCC4)c4c(c3)n(C)c(=O)n4C)cn2)cnc1C(=O)NCC#Cc1ccc2occ(C3CCC(=O)NC3=O)c2c1 (centres unmarked) [Example A128, 5-(5-((1,3-dimethyl-2-oxo-7-(tetrahydro-2H-pyran-4-yl)-2,3-dihydro-1H-benzo[d]imidazol-5-yl)(methyl)amino)pyrazin-2-yl)-N-(3-(3-(2,6-dioxopiperidin-3-yl)benzofuran-5-yl)prop-2-yn-1-yl)-3-methylpicolinamide] |
| > 80 | 1 to 9.9 | Cn1cc(-c2ccc3c(c2)n(C)c(=O)n3C)c2cnc(-c3ccc(C(=O)NCC#Cc4ccc5occ(C6CCC(=O)NC6=O)c5c4)nc3)cc2c1=O (centres unmarked) [Example A129, 5-(8-(1,3-dimethyl-2-oxo-2,3-dihydro-1H-benzo[d]imidazol-5-yl)-6-methyl-5-oxo-5,6-dihydro-2,6-naphthyridin-3-yl)-N-(3-(3-(2,6-dioxo-piperidin-3-yl)benzo-furan-5-yl)prop-2-yn-1-yl)picolinamide] |
| > 80 | 1 to 9.9 | CC(C)c1cc(N2CCOc3cc(-c4ccc(C(=O)NCC#Cc5ccc6occ(C7CCC(=O)NC7=O)c6c5)nc4)c(C#N)cc32)cc2c1n(C)c(=O)n2C (centres unmarked) [Example A134, 5-(6-cyano-4-(7-iso-propyl-1,3-dimethyl-2-oxo-2,3-dihydro-1H-benzo[d]imidazol-5-yl)-3,4-dihydro-2H-benzo[b][1,4]oxazin-7-yl)-N-(3-(3-(2,6-dioxopiperidin-3-yl)benzofuran-5-yl)prop-2-yn-1-yl)picolinamide] |
| > 80 | 1 to 9.9 | Cn1c(=O)n(C)c2c(C3CCOCC3)nc(-c3cccc4cc(-c5ccc(C(=O)NCC#Cc6ccc7occ(C8CCC(=O)NC8=O)c7c6)nc5)ncc34)cc21 (centres unmarked) [Example A135, 5-(8-(1,3-dimethyl-2-oxo-4-(tetrahydro-2H-pyran-4-yl)-2,3-dihydro-1H-imidazo[4,5-c]pyridin-6-yl)isoquinolin-3-yl)-N-(3-(3-(2,6-dioxopiperidin-3-yl)benzofuran-5-yl)prop-2-yn-1-yl)picolinamide] |
| > 80 | 1 to 9.9 | CCN(c1cnc(-c2cnc(C(=O)NCC#Cc3ccc4occ(C5CCC(=O)NC5=O)c4c3)c(C)c2)c(F)c1)c1cc(C(C)C)c2c(c1)n(C)c(=O)n2C (centres unmarked) [Example A137, N-(3-(3-(2,6-dioxo-piperidin-3-yl)benzofuran-5-yl)prop-2-yn-1-yl)-5-(ethyl(7-isopropyl-1,3-dimethyl-2-oxo-2,3-dihydro-1H-benzo[d]imidazol-5-yl)amino)-3-fluoro-5′-methyl-[2,3′-bipyridine]-6′-carboxamide] |
| 40 to 59 | 1 to 9.9 | Cn1c(=O)n(C)c2c(C3CCS(=O)(=O)CC3)nc(N3CCCc4cc(-c5ccc(C(=O)NCC#Cc6ccc7occ(C8CCC(=O)NC8=O)c7c6)nc5)c(C(F)F)cc43)cc21 (centres unmarked) [Example A140, 5-(7-(difluoromethyl)-1-(4-(1,1-dioxido-tetrahydro-2H-thio-pyran-4-yl)-1,3-dimethyl-2-oxo-2,3-dihydro-1H-imidazo[4,5-c]pyridin-6-yl)-1,2,3,4-tetrahydroquinolin-6-yl)-N-(3-(3-(2,6-dioxopiperidin-3-yl)benzofuran-5-yl)prop-2-yn-1-yl)picolinamide] |
